Experimental data: patent US9993494B2, “Compositions and methods for treating fibrotic disease” (eFFECTOR Therapeutics, Inc., priority 2014, dated 2018)

Tested on: normal human lung fibroblasts
Assay: Ribosomal profiling: translational efficiency in TGFβ-treated fibroblasts
Type: cell-based
Details: TGFβ-treated fibroblasts
Protocol: Ribosomal profiling allows for measurement of changes in transcription and translation on a genome-wide basis accompanying TGFβ-dependent transformation of fibroblasts to myofibroblasts. Ribosomal profiles of the TGFβ-treated fibroblasts from Example 1 (about 6×10^6 cells/10 cm plate) were prepared and analyzed for changes in translational efficiencies with respect to potential disease-associated cellular changes accompanying this TGFβ-induced transformation.
Briefly, cells were washed with cold PBS supplemented with cycloheximide and lysed with 1× mammalian cell lysis buffer for 10 minutes on ice. Lysates were clarified by centrifugation for 10 minutes at 14,000 rpm and supernatants were collected. Cell lysates were processed to generate ribosomal protected fragments and total mRNA according to the instructions included with the ARTseq Ribosome Profiling Kit (Illumina, San Diego, Calif.). Sequencing of total RNA (RNA) and of ribosome-protected fragments of RNA (RPF) was carried out using RNA-Seq methodology according to the manufacturer's instructions (Illumina). To analyze the ribosomal profiles, RNA-Seq reads were processed with tools from the FASTX-Toolkit (fastq_quality_trimmer, fastx_clipper and fastx_trimmer). Unprocessed and processed reads were evaluated for a variety of quality measures using FastQC, and processed reads were mapped to the human genome using TopHat (see, e.g., Trapnell et al., Bioinformatics 25:1105, 2009). Gene-by-gene assessment of the number of fragments strictly and uniquely mapping to the coding region of each gene was conducted using HTSeq-count, a component of the HTSeq package. […] Genes with low counts in either RPF or RNA were excluded from differential analyses. Pathway and network analyses of differential data were conducted using Ingenuity Pathway Analysis (IPA).

With `Cc1ccc(=O)n(-c2ccccc2)c1` [pirfenidone, 5-methyl-1-phenylpyridin-2-one] the “renormalizing the translational profile of DNASE1L1” value (ENSG00000013563) was “− (− = <0.9)”, the “renormalizing the translational profile of KITLG” value (ENSG00000049130) was “− (− = <0.9)” and the “renormalizing the translational profile of ADAMTS6” value (ENSG00000049192) was “− (− = <0.9)”. The “renormalizing the translational profile of LETMD1” value (ENSG00000050426) was “− (− = <0.9)”, the “renormalizing the translational profile of PLEKHA5” value (ENSG00000052126) was “− (− = <0.9)” and the “renormalizing the translational profile of EIF4B” value (ENSG00000063046) was “+ (+ = 0.9 to 1.5)”. The “renormalizing the translational profile of RPL18” value (ENSG00000063177) was “+ (+ = 0.9 to 1.5)”, the “renormalizing the translational profile of HIPK2” value (ENSG00000064393) was “− (− = <0.9)” and the “renormalizing the translational profile of ASPM” value (ENSG00000066279) was “+ (+ = 0.9 to 1.5)”. For the same molecule, the “renormalizing the translational profile of RASSF1” value (ENSG00000068028) was “− (− = <0.9)”, the “renormalizing the translational profile of PABPC1” value (ENSG00000070756) was “− (− = <0.9)” and the “renormalizing the translational profile of RPL31” value (ENSG00000071082) was “+ (+ = 0.9 to 1.5)”. The “renormalizing the translational profile of PLD1” value (ENSG00000075651) was “− (− = <0.9)”, the “renormalizing the translational profile of EDN1” value (ENSG00000078401) was “− (− = <0.9)” and the “renormalizing the translational profile of AURKA” value (ENSG00000087586) was “− (− = <0.9)”. For the same molecule, the “renormalizing the translational profile of EPB41L1” value (ENSG00000088367) was “− (− = <0.9)”, the “renormalizing the translational profile of RPL6” value (ENSG00000089009) was “− (− = <0.9)” and the “renormalizing the translational profile of P2RX7” value (ENSG00000089041) was “++ (++ = 1.5 to 2.0)”. For the same molecule, the “renormalizing the translational profile of KDM2B” value (ENSG00000089094) was “− (− = <0.9)”, the “renormalizing the translational profile of RPLP0” value (ENSG00000089157) was “− (− = <0.9)” and the “renormalizing the translational profile of IGBP1” value (ENSG00000089289) was “− (− = <0.9)”. The “renormalizing the translational profile of IRAK3” value (ENSG00000090376) was “− (− = <0.9)”, the “renormalizing the translational profile of PABPC4” value (ENSG00000090621) was “− (− = <0.9)” and the “renormalizing the translational profile of FMO2” value (ENSG00000094963) was “+++ (+++ = >2.0)”. For the same molecule, the “renormalizing the translational profile of ACOT7” value (ENSG00000097021) was “− (− = <0.9)”, the “renormalizing the translational profile of ATP5D” value (ENSG00000099624) was “− (− = <0.9)” and the “renormalizing the translational profile of LGALS1” value (ENSG00000100097) was “+ (+ = 0.9 to 1.5)”. For the same molecule, the “renormalizing the translational profile of EIF3L” value (ENSG00000100129) was “− (− = <0.9)”, the “renormalizing the translational profile of RPL3” value (ENSG00000100316) was “+ (+ = 0.9 to 1.5)” and the “renormalizing the translational profile of CEP192” value (ENSG00000101639) was “− (− = <0.9)”. The “renormalizing the translational profile of AMMECR1” value (ENSG00000101935) was “− (− = <0.9)”, the “renormalizing the translational profile of PLP2” value (ENSG00000102007) was “− (− = <0.9)” and the “renormalizing the translational profile of EIF3E” value (ENSG00000104408) was “− (− = <0.9)”. For the same molecule, the “renormalizing the translational profile of EEF1D” value (ENSG00000104529) was “− (− = <0.9)”, the “renormalizing the translational profile of C19orf53” value (ENSG00000104979) was “− (− = <0.9)” and the “renormalizing the translational profile of GLTSCR2” value (ENSG00000105373) was “+ (+ = 0.9 to 1.5)”. The “renormalizing the translational profile of RAB3D” value (ENSG00000105514) was “+ (+ = 0.9 to 1.5)”, the “renormalizing the translational profile of RPL18A” value (ENSG00000105640) was “+ (+ = 0.9 to 1.5)” and the “renormalizing the translational profile of COMP” value (ENSG00000105664) was “− (− = <0.9)”. For the same molecule, the “renormalizing the translational profile of GLCCI1” value (ENSG00000106415) was “+ (+ = 0.9 to 1.5)”, the “renormalizing the translational profile of CORO2A” value (ENSG00000106789) was “− (− = <0.9)” and the “renormalizing the translational profile of GDF10” value (ENSG00000107623) was “− (− = <0.9)”. The “renormalizing the translational profile of RPL28” value (ENSG00000108107) was “+ (+ = 0.9 to 1.5)”, the “renormalizing the translational profile of RPL19” value (ENSG00000108298) was “− (− = <0.9)” and the “renormalizing the translational profile of RASD1” value (ENSG00000108551) was “− (− = <0.9)”. The “renormalizing the translational profile of NAT9” value (ENSG00000109065) was “− (− = <0.9)”, the “renormalizing the translational profile of RPL34” value (ENSG00000109475) was “+ (+ = 0.9 to 1.5)” and the “renormalizing the translational profile of CRYAB” value (ENSG00000109846) was “− (− = <0.9)”. The “renormalizing the translational profile of GAPDH” value (ENSG00000111640) was “− (− = <0.9)”, the “renormalizing the translational profile of C12orf57” value (ENSG00000111678) was “− (− = <0.9)” and the “renormalizing the translational profile of MDFI” value (ENSG00000112559) was “− (− = <0.9)”. The “renormalizing the translational profile of HBEGF” value (ENSG00000113070) was “− (− = <0.9)”, the “renormalizing the translational profile of RPL24” value (ENSG00000114391) was “− (− = <0.9)” and the “renormalizing the translational profile of EEF1B2” value (ENSG00000114942) was “− (− = <0.9)”. For the same molecule, the “renormalizing the translational profile of IFIH1” value (ENSG00000115267) was “+ (+ = 0.9 to 1.5)”, the “renormalizing the translational profile of DPH5” value (ENSG00000117543) was “− (− = <0.9)” and the “renormalizing the translational profile of PPL” value (ENSG00000118898) was “− (− = <0.9)”. The “renormalizing the translational profile of PLEKHG1” value (ENSG00000120278) was “− (− = <0.9)”, the “renormalizing the translational profile of LIAS” value (ENSG00000121897) was “− (− = <0.9)” and the “renormalizing the translational profile of GPSM2” value (ENSG00000121957) was “− (− = <0.9)”. For the same molecule, the “renormalizing the translational profile of RPL21” value (ENSG00000122026) was “+ (+ = 0.9 to 1.5)”, the “renormalizing the translational profile of RPL5” value (ENSG00000122406) was “+ (+ = 0.9 to 1.5)” and the “renormalizing the translational profile of INHBA” value (ENSG00000122641) was “− (− = <0.9)”. For the same molecule, the “renormalizing the translational profile of CIT” value (ENSG00000122966) was “+ (+ = 0.9 to 1.5)”, the “renormalizing the translational profile of RPL23” value (ENSG00000125691) was “+ (+ = 0.9 to 1.5)” and the “renormalizing the translational profile of LAMP5” value (ENSG00000125869) was “− (− = <0.9)”.
